Holding throughout (assay): relative viability (nuclei count vs DMSO), 5 days (fraction); higher = more cells survive
Compound in the test “RO-3306 + Alpelisib”: C1=CC2=C(C=CC(=C2)C=C3C(=O)NC(=NCC4=CC=CS4)S3)N=C1 [RO-3306] + Cc1nc(NC(=O)N2CCC[C@H]2C(N)=O)sc1-c1ccnc(C(C)(C)C(F)(F)F)c1 [Alpelisib] (partner 2 µM)
A digest of the protocol:
(§1)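 The day after seeding in 1536-well plates, lung cancer cell lines were treated by pin tool with a single drug, or with a fixed anchor-drug dose together with five library-drug doses (not always all listed) in √10 steps. After 5 days, a combined fix-and-stain solution (final 0.05% Triton X-100, 1% formaldehyde, 1 ug/ml Hoechst) was added. Nuclei counted on 4× images gave relative viability as treated counts over vehicle counts, reported as the median of duplicate plates.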

Compound in the test “RO-3306 + Linsitinib”: C1=CC2=C(C=CC(=C2)C=C3C(=O)NC(=NCC4=CC=CS4)S3)N=C1 [RO-3306] + C[C@]1(O)C[C@@H](c2nc(-c3ccc4ccc(-c5ccccc5)nc4c3)c3c(N)nccn32)C1 [Linsitinib] (partner 1 µM)
In outline: as §1

Compound in test [1]: O=S(=O)(c1ccccc1)N(CC(F)(F)F)c1ccc(C(O)(C(F)(F)F)C(F)(F)F)cc1 + Nc1nc2[nH]cc(CCc3ccc(C(=O)N[C@@H](CCC(=O)O)C(=O)O)cc3)c2c(=O)[nH]1 [Pemetrexed] (partner 0.2 µM)
A digest of the protocol:
as §1

Compound in test [2]: O=S(=O)(c1ccccc1)N(CC(F)(F)F)c1ccc(C(O)(C(F)(F)F)C(F)(F)F)cc1 + CC(=O)Nc1cccc(-n2c(=O)n(C3CC3)c(=O)c3c(Nc4ccc(I)cc4F)n(C)c(=O)c(C)c32)c1 [Trametinib] (partner 0.02 µM)
In outline: as §1

NCI-H2009: the relative viability with RO-3306 + Alpelisib (first compound 0.01 µM) amounted to 1.18; with RO-3306 + Alpelisib (first compound 0.03162 µM), 1.18; with RO-3306 + Alpelisib (first compound 0.1 µM), 1.21; with RO-3306 + Alpelisib (first compound 0.3162 µM) it was 1.12; with RO-3306 + Alpelisib (first compound 1 µM), 1.27; with RO-3306 + Linsitinib (first compound 0.01 µM), 1.22. The relative viability in the test with RO-3306 + Linsitinib (first compound 0.03162 µM) amounted to 1.12; with RO-3306 + Linsitinib (first compound 0.1 µM) it was 1.18; in the test with RO-3306 + Linsitinib (first compound 0.3162 µM), 1.23; with RO-3306 + Linsitinib (first compound 1 µM), 1.23; in test [1] (first compound 0.8 µM), 1.01; in test [1] (first compound 2.53 µM), 0.941. Moreover, the relative viability in test [1] (first compound 8 µM) is 0.824; in test [2] (first compound 0.8 µM), 0.259; in test [2] (first compound 2.53 µM), 0.246; in test [2] (first compound 8 µM), 0.289.

Turning to NCI-H1915, the relative viability in the test with RO-3306 + Alpelisib (first compound 0.01 µM) was found to be 1.11; in the test with RO-3306 + Alpelisib (first compound 0.03162 µM), 0.988; with RO-3306 + Alpelisib (first compound 0.1 µM), 1.08; with RO-3306 + Alpelisib (first compound 0.3162 µM), 1.11; with RO-3306 + Alpelisib (first compound 1 µM), 1.05; with RO-3306 + Linsitinib (first compound 0.01 µM), 1.16. The relative viability was determined as 1.11 with RO-3306 + Linsitinib (first compound 0.03162 µM); 1.08 in the test with RO-3306 + Linsitinib (first compound 0.1 µM); 1.08 with RO-3306 + Linsitinib (first compound 0.3162 µM); 1.07 in the test with RO-3306 + Linsitinib (first compound 1 µM); 0.518 in test [1] (first compound 0.8 µM); 0.464 in test [1] (first compound 2.53 µM). Besides, the relative viability in test [1] (first compound 8 µM) came to 0.51; in test [2] (first compound 0.8 µM), 0.303; in test [2] (first compound 2.53 µM), 0.261; in test [2] (first compound 8 µM) it was 0.255.

Regarding EMC-BAC-2, the relative viability in the test with RO-3306 + Alpelisib (first compound 0.01 µM) was 0.763; with RO-3306 + Alpelisib (first compound 0.03162 µM), 0.63; with RO-3306 + Alpelisib (first compound 0.1 µM), 0.717; with RO-3306 + Alpelisib (first compound 0.3162 µM) it was 0.774; with RO-3306 + Alpelisib (first compound 1 µM) it was 0.726; with RO-3306 + Linsitinib (first compound 0.01 µM), 0.901. In addition, the relative viability was 0.678 with RO-3306 + Linsitinib (first compound 0.03162 µM); 0.797 with RO-3306 + Linsitinib (first compound 0.1 µM); 0.851 with RO-3306 + Linsitinib (first compound 0.3162 µM); 0.773 with RO-3306 + Linsitinib (first compound 1 µM); 0.402 in test [1] (first compound 0.8 µM); 0.401 in test [1] (first compound 2.53 µM). Further, the relative viability is 0.416 in test [1] (first compound 8 µM), 0.813 in test [2] (first compound 0.8 µM), 0.735 in test [2] (first compound 2.53 µM) and 0.758 in test [2] (first compound 8 µM).

Turning to Calu-6, the relative viability with RO-3306 + Alpelisib (first compound 0.01 µM) came out at 1.21; in the test with RO-3306 + Alpelisib (first compound 0.03162 µM), 0.91; with RO-3306 + Alpelisib (first compound 0.1 µM), 1.04; in the test with RO-3306 + Alpelisib (first compound 0.3162 µM), 0.931; in the test with RO-3306 + Alpelisib (first compound 1 µM), 0.982; in the test with RO-3306 + Linsitinib (first compound 0.01 µM), 1.1. Also, the relative viability stood at 0.695 with RO-3306 + Linsitinib (first compound 0.03162 µM), 0.978 in the test with RO-3306 + Linsitinib (first compound 0.1 µM), 0.997 with RO-3306 + Linsitinib (first compound 0.3162 µM) and 1.15 in the test with RO-3306 + Linsitinib (first compound 1 µM).

Regarding NCI-H2126, the relative viability with RO-3306 + Alpelisib (first compound 0.01 µM) was determined as 0.717; with RO-3306 + Alpelisib (first compound 0.03162 µM), 0.698; with RO-3306 + Alpelisib (first compound 0.1 µM), 0.752; with RO-3306 + Alpelisib (first compound 0.3162 µM), 0.786; with RO-3306 + Alpelisib (first compound 1 µM) it was 0.8; with RO-3306 + Linsitinib (first compound 0.01 µM), 0.678. Besides, the relative viability with RO-3306 + Linsitinib (first compound 0.03162 µM) amounted to 0.709; with RO-3306 + Linsitinib (first compound 0.1 µM), 0.775; in the test with RO-3306 + Linsitinib (first compound 0.3162 µM) it was 0.678; with RO-3306 + Linsitinib (first compound 1 µM), 0.635; in test [1] (first compound 0.8 µM), 0.82; in test [1] (first compound 2.53 µM) it was 0.743. Further, the relative viability in test [1] (first compound 8 µM) was found to be 0.672; in test [2] (first compound 0.8 µM) it was 0.645; in test [2] (first compound 2.53 µM), 0.593; in test [2] (first compound 8 µM), 0.628.

Source of the values: the supplement of paper PMC10307832.
